According to patent US7723329B2, “Substituted-3-sulfonylindazole derivatives as 5-hydroxytryptamine-6 ligands” (Wyeth LLC, priority 2005, dated 2010):
Structures can show the parent of a compound that is named as a salt.

Target: T1, human cloned 5-HT6 receptors (Homo sapiens, UniProt P50406)
T1 construct: expressed in transfected cells; host or cells: HeLa cells
Assay: 5-HT6 binding affinity, [3H]-LSD displacement
Settings: membranes of Hela cells expressing human cloned 5-HT6 receptors; [3H]-LSD 3.0 nM; 120 minutes at room temperature
Protocol: The affinity of test compounds for the serotonin 5-HT6 receptor was evaluated in the following manner. Cultured Hela cells expressing human cloned 5-HT6 receptors were harvested and centrifuged at low speed (1,000×g) for 10.0 minutes to remove the culture media. The harvested cells were suspended in half volume of fresh physiological phosphate buffered saline solution and recentrifuged at the same speed. This operation was repeated. The collected cells were then homogenized in ten volumes of 50 mM Tris.HCl (pH 7.4) and 0.5 mM EDTA. The homogenate was centrifuged at 40,000×g for 30.0 min and the precipitate was collected. The obtained pellet was resuspended in 10 volumes of Tris.HCl buffer and recentrifuged at the same speed. The final pellet was suspended in a small volume of Tris.HCl buffer and the tissue protein content was determined in aliquots of 10-25 μl volumes. […] The volume of the suspended cell membranes was adjusted to give a tissue protein concentration of 1.0 mg/ml of suspension. The prepared membrane suspension (10 times concentrated) was aliquoted in 1.0 ml volumes and stored at −70° C. until used in subsequent binding experiments.
The bound complex caught on the filter disk was allowed to air dry and the radioactivity is measured in a Packard TopCount® equipped with six photomultiplier detectors, after the addition of 40.0 μl Microscint®-20 scintillant to each shallow well. The unifilter plate was heat-sealed and counted in a PackardTopCount® with a tritium efficiency of 31.0%.
Specific binding to the 5-HT6 receptor was defined as the total radioactivity bound less the amount bound in the presence of 10.0 μM unlabeled methiothepin. Binding in the presence of varying concentrations of test compound was expressed as a percentage of specific binding in the absence of test compound. The results were plotted as log % bound versus log concentration of test compound. […] A linear regression line of data points was plotted, from which the IC50 value is determined and the Ki value is determined based upon the following equation: Ki=IC50/(1+L/KD) where L was the concentration of the radioactive ligand used and KD is the dissociation constant of the ligand for the receptor, both expressed in nM.

T1 sequence (P50406 whole entry): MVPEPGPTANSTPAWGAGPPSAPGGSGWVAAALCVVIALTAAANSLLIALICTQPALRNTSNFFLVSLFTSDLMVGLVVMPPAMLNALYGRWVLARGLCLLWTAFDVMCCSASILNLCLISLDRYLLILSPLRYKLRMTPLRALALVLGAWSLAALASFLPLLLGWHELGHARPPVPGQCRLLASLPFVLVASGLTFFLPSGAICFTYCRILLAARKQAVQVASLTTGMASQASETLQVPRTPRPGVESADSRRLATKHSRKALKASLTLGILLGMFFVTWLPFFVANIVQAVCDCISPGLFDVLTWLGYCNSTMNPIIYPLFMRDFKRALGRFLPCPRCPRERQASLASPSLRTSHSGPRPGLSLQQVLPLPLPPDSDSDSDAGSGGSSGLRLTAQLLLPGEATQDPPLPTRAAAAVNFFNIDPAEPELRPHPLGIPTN

SMILES	Ki
CCN(CC)CCOc1cccc2c(S(=O)(=O)c3cccc4ccccc34)nn(C)c12 [Example 97]	0.01 to 10 nM
CCNCCCOc1ccc2[nH]nc(S(=O)(=O)c3cccc4ccccc34)c2c1 [Example 16, Ethyl-{3-[3-(naphthalene-1-sulfonyl)-1H-indazol-5-yloxy]-propyl}-amine]	0.01 to 10 nM
CCN(C)CCCOc1ccc2[nH]nc(S(=O)(=O)c3cccc4ccccc34)c2c1 [Example 17, Ethyl-methyl-{3-[3-(naphthalene-1-sulfonyl)-1H-indazol-5-yloxy]-propyl}-amine]	0.01 to 10 nM
NCCC(=O)Nc1ccc2c(S(=O)(=O)c3cccc4ccccc34)n[nH]c2c1 [Example 165, 3-Amino-N-[3-(naphthalene-1-sulfonyl)-1H-indazol-6-yl]-propionamide hydrochloride]	11 to 25 nM
COc1cc(OCCN2CCCC2)c2[nH]nc(S(=O)(=O)c3cccc4ccccc34)c2c1 [Example 127]	11 to 25 nM
O=S(=O)(c1ccccc1)c1n[nH]c2ccc(OCCNC3CCCC3)cc12 [Example 9, 3-Benzenesulfonyl-5-(2-cyclopentyl-1-yl-ethoxy)-1H-indazole]	11 to 25 nM
NCCNc1ccc2c(S(=O)(=O)c3cccc4ccccc34)n[nH]c2c1 [Example 170, N1-[3-(Naphthalene-1-sulfonyl)-1H-indazol-6-yl]-ethane-1,2-diamine dihydrochloride]	11 to 25 nM
CNCCOc1ccc2c(c1)c(S(=O)(=O)c1cccc3ccccc13)nn2C [Example 40, Methyl-{2-[1-methyl-3-(naphthalene-1-sulfonyl)-1H-indazol-5-yloxy]-ethyl}-amine]	0.01 to 10 nM
O=S(=O)(c1cccc2ccccc12)c1n[nH]c2ccc(OCCCN3CCCC3)cc12 [Example 23, 3-(Naphthalene-1-sulfonyl)-5-(3-pyrrolidin-1-yl-propoxy)-1H-indazole]	0.01 to 10 nM
COc1cc(OCCN(C)C)c2c(c1)c(S(=O)(=O)c1cccc3ccccc13)nn2Cc1cccc(Cl)c1 [Example 121]	> 45 nM
O=S(=O)(c1cccc2ccccc12)c1nn(Cc2ccccc2)c2ccc(OCCN3CCCC3)cc12 [Example 52, 1-Benzyl-3-(naphthalene-1-sulfonyl)-5-(2-pyrrolidin-1-yl-ethoxy)-1H-indazole]	> 45 nM
O=C(CCN1CCCCC1)Nc1ccc2c(S(=O)(=O)c3cccc4ccccc34)n[nH]c2c1 [Example 167, N-[3-(Naphthalene-1-sulfonyl)-1H-indazol-6-yl]-3-piperidin-1-yl-propionamide hydrochloride]	11 to 25 nM
NCCCOc1ccc2[nH]nc(S(=O)(=O)c3cccc4ccccc34)c2c1 [Example 26, 3-[3-(Naphthalene-1-sulfonyl)-1H-indazol-5-yloxy]-propylamine]	0.01 to 10 nM
CNCCCOc1cccc2c(S(=O)(=O)c3cccc4ccccc34)n[nH]c12 [Example 134]	11 to 25 nM
CCN(CC)CCCCOc1ccc2[nH]nc(S(=O)(=O)c3cccc4ccccc34)c2c1 [Example 66]	0.01 to 10 nM
CN(C)CCOc1ccc2c(c1)c(S(=O)(=O)c1cccc3ccccc13)nn2Cc1cccc(Cl)c1 [Example 54, {2-[1-(3-Chloro-benzyl)-3-(naphthalene-1-sulfonyl)-1H-indazol-5-yloxy]-ethyl}-dimethyl-amine]	11 to 25 nM
O=S(=O)(c1cccc2ccccc12)c1n[nH]c2ccc(OCCCCN3CCCC3)cc12 [Example 67]	0.01 to 10 nM
CN(C)CCNC(=O)c1ccc2[nH]nc(S(=O)(=O)c3cccc4ccccc34)c2c1 [Example 151, N-[2-(Dimethylamino)ethyl]-3-(1-naphthylsulfonyl)-1H-indazole-5-carboxamide]	0.01 to 10 nM
N[C@@H]1CCN(Cc2ccc3[nH]nc(S(=O)(=O)c4cccc5ccccc45)c3c2)C1 [Example 201]	0.01 to 10 nM
CN(C)CCc1ccc2[nH]nc(S(=O)(=O)c3ccccc3)c2c1 [Example 176, N,N-Dimethyl-N-{2-[3-(phenylsulfonyl)-1H-indazol-5-yl]ethyl}amine hydrochloride]	11 to 25 nM
CN(C)CCOc1ccc2c(c1)c(S(=O)(=O)c1cccc3ccccc13)nn2Cc1ccccc1 [Example 51, {2-[1-Benzyl-3-(naphthalene-1-sulfonyl)-1H-indazol-5-yloxy]-ethyl}-dimethyl-amine]	11 to 25 nM
CN(C)CCOc1ccc2[nH]nc(S(=O)(=O)c3cccc4ccccc34)c2c1 [Example 27, Dimethyl-{2-[3-(naphthalene-1-sulfonyl)-1H-indazol-5-yloxy]-ethyl}-amine]	0.01 to 10 nM

SMILES	Ki
O=C(c1ccc2[nH]nc(S(=O)(=O)c3cccc4ccccc34)c2c1)N1CCNCC1 [Example 202, 3-(1-Naphthylsulfonyl)-5-(piperazin-1 ylcarbonyl)-1H-indazole]	> 45 nM
CNCCCOc1ccc2[nH]nc(S(=O)(=O)c3cccc4ccccc34)c2c1 [Example 15, Methyl-{3-[3-(naphthalene-1-sulfonyl)-1H-indazol-5-yloxy]-propyl}-amine]	0.01 to 10 nM
CC(C)NCCOc1ccc2c(c1)c(S(=O)(=O)c1cccc3ccccc13)nn2C [Example 45, Isopropyl-{2-[1-methyl-3-(naphthalene-1-sulfonyl)-1H-indazol-5-yloxy]-ethyl}-amine]	0.01 to 10 nM
CCNCCCOc1cccc2c(S(=O)(=O)c3cccc4ccccc34)nn(Cc3cccc(Cl)c3)c12 [Example 129]	> 45 nM
CCN(CC)CCC(=O)Nc1ccc2c(S(=O)(=O)c3cccc4ccccc34)n[nH]c2c1 [Example 169, 3-Diethylamino-N-[3-(naphthalene-1-sulfonyl)-1H-indazol-6-yl]-propionamide hydrochloride]	> 45 nM
O=S(=O)(c1cccc2ccccc12)c1nn(Cc2cccc(Cl)c2)c2ccc(OCCN3CCCC3)cc12 [Example 58, 1-(3-Chloro-benzyl)-3-(naphthalene-1-sulfonyl)-5-(2-pyrrolidin-1-yl-ethoxy)-1H-indazole]	26 to 35 nM
CCN(CC)CCOc1ccc2c(c1)c(S(=O)(=O)c1cccc3ccccc13)nn2Cc1ccccc1 [Example 50, {2-[1-Benzyl-3-(naphthalene-1-sulfonyl)-1H-indazol-5-yloxy]-ethyl}-diethyl-amine]	36 to 45 nM
NCCC(=O)Nc1ccc2[nH]nc(S(=O)(=O)c3cccc4ccccc34)c2c1 [Example 158, 3-Amino-N-[3-(naphthalene-1-sulfonyl)-1H-indazol-5-yl]-propionamide hydrochloride]	0.01 to 10 nM
CNCCOc1cccc2c(S(=O)(=O)c3cccc4ccccc34)n[nH]c12 [Example 77]	0.01 to 10 nM
CN(C)CCOc1ccc2c(c1)c(S(=O)(=O)c1cccc3ccccc13)nn2C [Example 41, Dimethyl-{2-[1-methyl-3-(naphthalene-1-sulfonyl)-1H-indazol-5-yloxy]-ethyl}-amine]	0.01 to 10 nM
CCN(CC)CCOc1ccc2c(c1)c(S(=O)(=O)c1cccc3ccccc13)nn2Cc1cccc(Cl)c1 [Example 56, {2-[1-(3-Chloro-benzyl)-3-(naphthalene-1-sulfonyl)-1H-indazol-5-yloxy]-ethyl}-diethyl-amine]	> 45 nM
CN(C)CCOc1cccc2c(S(=O)(=O)c3cccc4ccccc34)n[nH]c12 [Example 78]	0.01 to 10 nM
CNCCOc1ccc2c(c1)c(S(=O)(=O)c1cccc3ccccc13)nn2Cc1ccccc1 [Example 48, {2-[1-Benzyl-3-(naphthalene-1-sulfonyl)-1H-indazol-5-yloxy]-ethyl}-methyl-amine]	26 to 35 nM
CC(C)NCCCOc1ccc2[nH]nc(S(=O)(=O)c3cccc4ccccc34)c2c1 [Example 22, Isopropyl-{3-[3-(naphthalene-1-sulfonyl)-1H-indazol-5-yloxy]-propyl}-amine]	0.01 to 10 nM
CNCCOc1cccc2c(S(=O)(=O)c3ccccc3)nn(C)c12 [Example 101]	11 to 25 nM
CC(C)NCCOc1ccc2[nH]nc(S(=O)(=O)c3cccc4ccccc34)c2c1 [Example 28, Isopropyl-{2-[3-(naphthalene-1-sulfonyl)-1H-indazol-5-yloxy]-ethyl}-amine]	0.01 to 10 nM
O=S(=O)(c1cccc2ccccc12)c1n[nH]c2c(OCCN3CCCC3)cccc12 [Example 81]	0.01 to 10 nM
CNCCOc1ccc2c(c1)c(S(=O)(=O)c1cccc3ccccc13)nn2Cc1cccc(Cl)c1 [Example 59, {2-[1-(3-Chloro-benzyl)-3-(naphthalene-1-sulfonyl)-1H-indazol-5-yloxy]-ethyl}-methyl-amine]	> 45 nM
CCN(CC)CCOc1cc(F)cc2c(S(=O)(=O)c3cccc4ccccc34)nn(Cc3cccc(Cl)c3)c12 [Example 110]	> 45 nM
O=S(=O)(c1cccc2ccccc12)c1nn(Cc2cccc(Cl)c2)c2c(OCCN3CCCC3)cc(F)cc12 [Example 112]	> 45 nM
O=S(=O)(c1cccc2ccccc12)c1n[nH]c2c(OCCN3CCCCC3)cc(F)cc12 [Example 117]	0.01 to 10 nM
